Measurements from patent EP1561465A2, “Methods of use of fluoroquinolone compounds against bacteria” (LG Life Sciences, Ltd., priority 1999, dated 2001).
Values after ≈ are worked out from the molar mass of the structure shown. Like-named read-outs stand apart in the source and are kept apart here.

Experiments:
Format in all cases: cell-based
[1] = system: Streptococcus pneumoniae; assay: MIC by two-fold serial agar dilution, Sensitivity Disk agar-N (Kitasato isolates); conditions: Streptococcus pneumoniae; for MIC: read-out: MIC Range; for MIC50: read-out: MIC50
[2] = system: Enterobacter aerogenes; assay: MIC by NCCLS broth microdilution, 1100 Japanese clinical isolates 1997-1998; conditions: Enterobacter aerogenes (n=35)
[3] = system: Klebsiella pneumoniae; assay: as above; conditions: Klebsiella pneumoniae (n=35)
[4] = system: Enterococcus faecalis; assay: as above; conditions: for MIC50 / MIC90: Enterococcus faecalis; for MIC90: read-out: MIC90
[5] = system: Acinetobacter spp.; assay: MIC by agar dilution (NCCLS), 322 nosocomial Gram negative isolates, Athens 1998; conditions: n = 38 strains
[6] = system: Mycobacterium tuberculosis (MTB); assay: MIC by proportions method (NCCLS M24-T, 1995), 82 MTB strains; conditions: compared with the other quinolones
[7] = system: Staphylococcus aureus; assay: MIC by agar dilution (NCCLS), 411 isolates Buenos Aires 1998-99; conditions: for MIC90: Staphylococcus aureus
[8] = system: Streptococcus pneumoniae; assay: as above; conditions: for MIC90 / MIC: Streptococcus pneumoniae; for MIC: Ciprofloxacin-resistant S. pneumoniae, read-out: MIC
[9] = system: E. coli; assay: microbe, parasite or virus in culture; conditions: Escherichia coli
[10] = Enterococcus faecalis ciprofloxacin resistant (n=15)
[11] = Enterococcus faecalis ciprofloxacin susceptible (n=24)
[12] = S. aureus, Methicillin resistant (n = 14)
[13] = S. aureus, Methicillin susceptible (n = 66)

N[C@@H]1[C@H]2CN(c3nc4c(cc3F)c(=O)c(C(=O)O)cn4-c3ccc(F)cc3F)C[C@@H]12 [Trovafloxacin, trovafloxacin]
MIC90 [1]: 0.125 µg/mL (≈ 0.3 µM) | MIC90 ([1]; 18 h, Ciprofloxacin-resistant (21), ciprofloxacin MIC ≥8 µg/ml, read-out: MIC90): 4 µg/mL (≈ 9.61 µM) | MIC ([1]; 18 h, Ciprofloxacin-susceptible (94)): 0.031 to 0.25 µg/mL (≈ 0.0745 to 0.6 µM) | MIC ([1]; 18 h, Erythromycin-resistant (37)): 0.063 to 2 µg/mL (≈ 0.151 to 4.8 µM) | MIC ([1]; 18 h, Minocycline-resistant (37)): 0.063 to 2 µg/mL (≈ 0.151 to 4.8 µM) | MIC ([1]; 18 h, Penicillin-resistant (19)): 0.031 to 0.25 µg/mL (≈ 0.0745 to 0.6 µM) | MIC ([1]; 18 h): 0.125 to 4 µg/mL (≈ 0.3 to 9.61 µM) | MIC50 ([1]; Ciprofloxacin-resistant (21)): 2 µg/mL (≈ 4.8 µM) | MIC50 ([1]; Ciprofloxacin-susceptible (94)): 0.063 µg/mL (≈ 0.151 µM) | MIC50 ([1]; Erythromycin-resistant (37)): 0.063 µg/mL (≈ 0.151 µM) | MIC90 ([1]; Erythromycin-resistant (37), read-out: MIC90): 0.25 µg/mL (≈ 0.6 µM) | MIC50 ([1]; Minocycline-resistant (37)): 0.063 µg/mL (≈ 0.151 µM) | MIC90 ([1]; Minocycline-resistant (37), read-out: MIC90): 0.25 µg/mL (≈ 0.6 µM) | MIC50 ([1]; Penicillin-resistant (19)): 0.063 µg/mL (≈ 0.151 µM) | MIC90 ([1]; Penicillin-resistant (19), read-out: MIC90): 0.25 µg/mL (≈ 0.6 µM) | MIC Range [2]: ≤0.008 to 0.125 µg/mL | MIC50 ([2]; Klebsiella aerogenes): 0.032 µg/mL (≈ 0.0769 µM) | MIC90 ([2]; Klebsiella aerogenes): 0.063 µg/mL (≈ 0.151 µM) | MIC50 [3]: 0.032 µg/mL (≈ 0.0769 µM) | MIC Range [3]: ≤0.008 to 1 µg/mL | MIC90 ([3]; read-out: MIC90): 0.063 µg/mL (≈ 0.151 µM) | MIC Range [4, 10]: 0.25 to 16 µg/mL | MIC Range [4, 11]: 0.25 to 0.5 µg/mL | MIC50 [4, 10]: 4 µg/mL (≈ 9.61 µM) | MIC90 [4, 10]: 16 µg/mL (≈ 38.4 µM) | MIC50 [4, 11]: 0.25 µg/mL (≈ 0.6 µM) | MIC90 [4, 11]: 0.25 µg/mL (≈ 0.6 µM) | MIC50 ([5]; Acinetobacter): 2 µg/mL (≈ 4.8 µM) | MIC90 ([5]; Acinetobacter): 16 µg/mL (≈ 38.4 µM) | MIC Range [5]: ≤0.03 to 32 µg/mL | in vitro activity against MTB [6]: lower in vitro activity | Resistance (%) [7, 12]: 7% | Resistance (%) [7, 13]: 0% | MIC Range ([7]; Staphylococcus aureus (n = 80)): ≤0.004 to 8 µg/mL | MIC90 [7, 12]: 4 µg/mL (≈ 9.61 µM) | MIC90 [7, 13]: 0.06 µg/mL (≈ 0.144 µM) | MIC90 ([7]; Staphylococcus aureus (n = 80)): 2 µg/mL (≈ 4.8 µM) | MIC90 [8]: 0.125 µg/mL (≈ 0.3 µM) | MIC Range ([8]; Streptococcus pneumoniae (n = 90)): 0.016 to 1 µg/mL | MIC ([8]; Strain 1): 0.25 µg/mL (≈ 0.6 µM) | MIC ([8]; Strain 2): 0.025 µg/mL (≈ 0.06 µM) | MIC ([8]; Strain 3): 1 µg/mL (≈ 2.4 µM) | MIC ([8]; Strain 4): 1 µg/mL (≈ 2.4 µM) | MIC90 ([8]; S. pneumoniae, Penicillin intermediate (n = 17), read-out: MIC90): 0.25 µg/mL (≈ 0.6 µM) | MIC90 ([8]; S. pneumoniae, Penicillin susceptible (n = 69), read-out: MIC90): 0.25 µg/mL (≈ 0.6 µM) | MIC90 ([8]; Streptococcus pneumoniae (n = 90), read-out: MIC90): 0.25 µg/mL (≈ 0.6 µM) | MIC50 ([9]; E. coli (13 strains), quinolone-resistant, read-out: MIC50): 0.063 µg/mL (≈ 0.151 µM) | MIC90 ([9]; E. coli (13 strains), quinolone-resistant, read-out: MIC90): 0.5 µg/mL (≈ 1.2 µM) | MIC ([9]; E. coli KU1029, mutant type SP (spontaneous mutant in the DNA gyrase)): 0.063 µg/mL (≈ 0.151 µM) | MIC ([9]; E. coli KU1030, mutant type SP): 0.063 µg/mL (≈ 0.151 µM) | MIC ([9]; E. coli KU1031, mutant type SP): 0.063 µg/mL (≈ 0.151 µM) | MIC ([9]; E. coli KU1032, mutant type SP): 0.25 µg/mL (≈ 0.6 µM) | MIC ([9]; E. coli KU1033, mutant type SP): 0.031 µg/mL (≈ 0.0745 µM) | MIC ([9]; E. coli KU1034, mutant type GA (DNA gyrase A)): 0.5 µg/mL (≈ 1.2 µM) | MIC ([9]; E. coli KU1035, mutant type GA (DNA gyrase A)): 0.5 µg/mL (≈ 1.2 µM) | MIC ([9]; E. coli KU1036, mutant type GB (DNA gyrase B)): 0.063 µg/mL (≈ 0.151 µM) | MIC ([9]; E. coli KU1038, mutant type SP): 0.063 µg/mL (≈ 0.151 µM) | MIC ([9]; E. coli KU1039, mutant type SP): 0.25 µg/mL (≈ 0.6 µM) | MIC ([9]; E. coli KU1040, mutant type SP): ≤ 0.008 µg/mL | MIC ([9]; E. coli KU1041, mutant type SP): 0.5 µg/mL (≈ 1.2 µM) | MIC ([9]; E. coli KU1042, mutant type SP): 0.125 µg/mL (≈ 0.3 µM)
